Reference: PubChem BioAssay AID588503 (Sanford-Burnham Center for Chemical Genomics, 2011)
Where “and” joins values, the source holds several entries; their conditions need not be identical. Equal entries are not always repeated. Calls of active or inactive are those of the source.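 Rule for the calls: active = compounds whose mean half-maximal effective concentration EC50 is at most 20 µM; inactive = the rest.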

Biological target: G-protein coupled receptor 35 (Homo sapiens) (UniProt Q9HC97)
Assay: GPR35 activation by analogs, SAR follow-up, selectivity assay for NTR1 agonist project, imaging, U2OS, beta-arrestin-GFP (AID 588503)
Details: GPR35-U2OS beta-arrestin-GFP translocation imaging

G-protein coupled receptor 35 (Homo sapiens), sequence (Q9HC97 whole entry, looked up): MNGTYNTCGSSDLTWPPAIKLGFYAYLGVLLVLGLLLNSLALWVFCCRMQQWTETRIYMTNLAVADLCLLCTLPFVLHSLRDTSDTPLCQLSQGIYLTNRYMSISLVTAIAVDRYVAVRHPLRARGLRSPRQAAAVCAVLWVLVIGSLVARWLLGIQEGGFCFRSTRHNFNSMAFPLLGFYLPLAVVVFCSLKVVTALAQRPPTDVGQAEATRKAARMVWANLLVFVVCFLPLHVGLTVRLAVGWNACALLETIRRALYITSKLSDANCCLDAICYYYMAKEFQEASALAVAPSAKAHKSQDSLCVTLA

| EC50 | SMILES |
| --- | --- |
| > 40 µM (inactive) | COc1ccccc1N1CCN(c2ncnc3c2cnn3-c2ccc(C)cc2C)CC1 |
| 8.31 µM | COc1cc2c3nnc(-c4ccc(C)cc4)c-3cn(Cc3ccc(F)cc3)c2cc1OC |
| > 40 µM (inactive) | COc1cccc(N2CCN(c3ncnc4c3cnn4-c3ccc(C)cc3C)CC2)c1 |
| > 40 µM (inactive) | CN(C)S(=O)(=O)c1ccc(-c2csc(N/N=C/c3ccco3)n2)cc1 |
| > 40 µM (inactive) | COc1cc2nc(-c3ccccc3)nc(N3CCN(c4ccccc4OC)CC3)c2cc1OC |
| > 40 µM (inactive) | Cc1cccc(C)c1-c1nc(C(=O)N[C@@H](CC(C)C)C(=O)O)cn1-c1ccnc2cc(Cl)ccc12 |
| > 40 µM (inactive) | O=S(=O)(c1ccc(-c2csc(N/N=C/c3ccco3)n2)cc1)N1CCCC1 |
| 10.5 µM | COc1cc2c3nnc(-c4ccc(Cl)cc4)c-3cn(Cc3ccccc3)c2cc1OC |
| > 40 µM (inactive) | CCOc1ccc(-c2nnc3c4cc(OC)c(OC)cc4n(Cc4ccc(C)cc4)cc2-3)cc1 |
| > 40 µM (inactive) | CN(C)S(=O)(=O)c1ccc(-c2csc(N/N=C/c3cccs3)n2)cc1 |
| inactive | COc1ccc(Cn2c(SCc3ccc(C)cc3)nc3cc(OC)c(OC)cc3c2=N)cc1Cl |
| 9.82 µM | COc1cc2c3nnc(-c4ccc(F)cc4)c-3cn(Cc3ccccc3)c2cc1OC |
| > 40 µM (inactive) | COc1cc2nc(C3CCC3)nc(N3CCN(c4ccccc4C)CC3)c2cc1OC |
| 8.86 µM | COc1cc2c3nnc(-c4ccc(C)cc4)c-3cn(Cc3ccc(C)cc3)c2cc1OC |
| > 40 µM (inactive) | Cc1ccc(-n2ncc3c(N4CCN(c5ccccc5F)CC4)ncnc32)c(C)c1 |
| inactive | COc1cc2c3nnc(-c4ccccc4)c-3cn(Cc3ccccc3)c2cc1OC |
| > 40 µM (inactive) | COc1cccc(OC)c1-c1nc(C(=O)N[C@@H](CC(C)C)C(=O)O)cn1-c1cccc2ccccc12 |
| inactive | CCN(CC)S(=O)(=O)c1ccc(-c2csc(N/N=C/c3ccco3)n2)cc1 |
| 6.26 µM | COc1ccc(-c2nnc3c4cc(OC)c(OC)cc4n(Cc4ccc(C)cc4)cc2-3)cc1 |
| > 40 µM (inactive) | COc1ccc(Cn2c(SCc3ccccc3)nc3cc(OC)c(OC)cc3c2=N)cc1Cl |
| > 40 µM (inactive) | COc1ccc(Cn2c(SCc3cccc(C(F)(F)F)c3)nc3cc(OC)c(OC)cc3c2=N)cc1Cl |

| EC50 | SMILES |
| --- | --- |
| > 40 µM (inactive) | Cc1cc(Cl)ccc1-n1ncc2c(N3CCN(c4ccccc4)CC3)ncnc21 |
| inactive | COc1cc2c3nnc(-c4ccc(C)c(C)c4)c-3cn(Cc3ccccc3)c2cc1OC |
| > 40 µM (inactive) | COc1cccc(OC)c1-c1nc(C(=O)N[C@@H](CC(C)C)C(=O)O)cn1-c1ccnc2ccccc12 |
| > 40 µM (inactive) | COc1ccc(Cn2c(SCc3cc(C)ccc3C)nc3cc(OC)c(OC)cc3c2=N)cc1Cl |
| > 40 µM (inactive) | COc1ccccc1-c1cc(C(=O)N[C@@H](CC(C)C)C(=O)O)nn1-c1ccnc2cc(Cl)ccc12 |
| > 40 µM (inactive) | COc1cccc(OC)c1-c1nc(C(=O)N[C@@H](CC(C)C)C(=O)O)cn1-c1ccnc2cc(Cl)ccc12 |
| 13.6 µM | COc1cc2c3nnc(-c4ccc(F)cc4)c-3cn(Cc3ccc(F)cc3)c2cc1OC |
| > 40 µM (inactive) | CC(C)C[C@H](NC(=O)c1cn(-c2ccnc3cc(Cl)ccc23)c(-c2c(Cl)cccc2Cl)n1)C(=O)O |
| > 40 µM (inactive) | COc1cc2c3nnc(-c4ccc(Cl)cc4)c-3cn(Cc3ccc(C)cc3)c2cc1OC |
| > 40 µM (inactive) | Cc1ccc(-n2ncc3c(N4CCN(c5ccccc5)CC4)ncnc32)c(C)c1 |
| > 40 µM (inactive) | Clc1ccccc1-n1ncc2c(N3CCN(c4ccccc4)CC3)ncnc21 |
| 8.57 µM and 7.58 µM | COc1cc2c3nnc(-c4ccc(F)cc4)c-3cn(Cc3ccc(C)cc3)c2cc1OC |
| inactive | CCOc1ccc(-c2nnc3c4cc(OC)c(OC)cc4n(Cc4ccccc4)cc2-3)cc1 |
| inactive | CCOc1ccc(-c2nnc3c4cc(OC)c(OC)cc4n(Cc4ccc(F)cc4)cc2-3)cc1 |
| > 40 µM (inactive) | COc1ccc(Cn2c(SCc3ccccc3C)nc3cc(OC)c(OC)cc3c2=N)cc1Cl |
| 8.32 µM | COc1cc2c3nnc(-c4ccc(Cl)cc4)c-3cn(Cc3ccc(F)cc3)c2cc1OC |
| > 40 µM (inactive) | Cc1ccc(Cn2cc3c(-c4ccc(F)cc4)nnc-3c3cc4c(cc32)OCO4)cc1 |
| > 40 µM (inactive) | COc1cccc(OC)c1-c1cc(C(=O)N[C@@H](CC(C)C)C(=O)O)nn1-c1ccnc2cc(Cl)ccc12 |
| > 40 µM (inactive) | COc1cc2nc(C3CCC3)nc(N3CCN(c4ccccc4OC)CC3)c2cc1OC |
| > 40 µM (inactive) | Cc1ccc(C)c(-n2ncc3c(N4CCN(c5ccccc5)CC4)ncnc32)c1 |
| 6.07 µM | COc1cc2c3nnc(-c4ccc(F)cc4)c-3cn(Cc3cccc(C)c3)c2cc1OC |
